From patent US8722727B2, “Antifungal agents” (Seynix, Inc., priority 2008, dated 2014)

Target: T1, glucan synthase (GS) (Candida albicans, UniProt O13428)
T1 construct: Extraction of GS activity from membranes was performed at a protein concentration of 5 mg/mL in extraction buffer; endogenous in cells; host or cells: Candida albicans MY1055 (membrane fraction, detergent extraction, product entrapment)
Experiment: Glucan synthase inhibition (polymerization assay, 96-well)
Assay type: biochemical
Conditions: glucan synthase prepared from Candida albicans MY1055; 60 min incubation at 22° C.; read-out: Candida Albicans GS IC50 (ng/mL) (converted)
Procedure: The in vitro evaluation of glucan synthase inhibitory activity of compounds was measured in a polymerization assay in 96-well format. Each well contained 100 μL of ^3H-UDPG at 0.5 mM (6000 to 8000 dpm/nmol), 50 mM HEPES pH 7.5 (Sigma), 10% w/v glycerol (Sigma), 1.5 mg/mL bovine serum albumin (Sigma A 9647. Lot 44H0190), 25 mM KF (Fisher), 1 mM EDTA (Gibco ULTRAPURE), 25 μM GTP-γ-S, enzyme sufficient to give 3 to 6 nmoles incorporation during the 60 min incubation at 22° C., and test compound added from wells in 3-fold serial dilutions in 100% DMSO (1 μL/well). The reaction was stopped by the addition of 100 μL of 20% trichloroacetic acid. Plates were chilled for a minimum of 10 min, and precipitated glucan collected by filtration on GF/C plates (Packard UNIFILTER®-96), washed with 5 cycles of water (about 1 mL/well each cycle) using a Packard FILTERMATE HARVESTER. 40 μL/well scintillation fluid (Packard ULTIMA GOLD TM-XR) was added and the sealed plates counted in a WALLAC BETA counter in top-counting mode at an efficiency of approximately 40%.
Stock solutions were stored at 10 mg/mL in DMSO at −20° C. For each new enzyme preparation, the initial titration performed started at 1 mg/mL, which was prepared by making a 10-fold dilution in DMSO (5 μL to 50 μL). 40 μL of this stock was placed in column 12 of a round-bottomed 96-well microtiter plate. 40 μL DMSO was added to columns 1 to 11 in the same row and ten 3-fold serial dilutions performed, by transferring 20 μL from column 12 to column 11 etc., with 4 mixings before each transfer. No test compound was transferred to from column 2 to column 1. Duplicate aliquots of 1 μL of all 12 dilutions were then transferred to the side walls of a 96-well Bioblock 1.1 mL plate (Fisher brand) to create two rows. Graphs of the primary data were created in PRISM software (the average of two determinations) using PRISM's curve fitting program (sigmoidal dose response non-linear regression). The amount of compound required to inhibit glucan synthase activity by 50% in this assay (IC50-ng/mL) was calculated.
Routine analysis was performed with glucan synthase (GS) prepared from Candida albicans MY1055 by the following procedure: MY1055 was grown in 10 liters YPD medium (10 g yeast extract, 20 g tryptone, 20 g glucose per liter) with vigorous shaking at 30° C., to early stationary phase. Cells were harvested by centrifugation, the pellet was washed and frozen at −70° C. until breakage. Thawed pellets were shaken with an equal volume of breakage buffer (50 mM HEPES pH 7.4, 10% glycerol, 1 mM EDTA, 1 mM PMSF, 1 mM DTT) and 4 times their weight of 0.5 mm acid washed glass beads for 2 hours at 4° C. Extent of breakage was assessed visually at 40× magnification. After low speed centrifugation to remove cell debris, the supernatant was centrifuged at 100,000×g for 60 min. to separate membranes plus ribosomes from cytoplasmic components. Membranes were further washed two additional times with breakage buffer using the same centrifugation conditions and finally suspended in breakage buffer at 25 to 30 mg/mL protein (Biorad) for storage at −70° C. Extraction of GS activity from membranes was performed at a protein concentration of 5 mg/mL in extraction buffer (50 mM NaPO4 pH 7.5, 0.1 M KCl, 0.1M Na citrate, 20% glycerol, 5 μM GTP-γ-S, 1 mM DTT, 1 mM PMSF, 3 μg/mL pepstatin) plus 0.25% W1 by gentle mixing at 4° C. for 60 min, followed by centrifugation at 100,000×g for 60 min. After centrifugation, clear supernatant was removed from a pellet consisting of a hard layer usually with small amounts of gelatinous unextracted membranes above it.
Trapping was initiated immediately by 5-fold dilution in trapping buffer (50 mM HEPES pH 7.5, 10 mM KF, 1 mM EDTA, 2 mg/mL BSA) plus 2.5 mM UDPG and 10 μM GTP-γ-S. After incubation at 25° C. for 60 to 90 minutes, glucan was harvested by low speed centrifugation (3,000×g, 10 min). […]

T1 sequence (O13428 1-1897): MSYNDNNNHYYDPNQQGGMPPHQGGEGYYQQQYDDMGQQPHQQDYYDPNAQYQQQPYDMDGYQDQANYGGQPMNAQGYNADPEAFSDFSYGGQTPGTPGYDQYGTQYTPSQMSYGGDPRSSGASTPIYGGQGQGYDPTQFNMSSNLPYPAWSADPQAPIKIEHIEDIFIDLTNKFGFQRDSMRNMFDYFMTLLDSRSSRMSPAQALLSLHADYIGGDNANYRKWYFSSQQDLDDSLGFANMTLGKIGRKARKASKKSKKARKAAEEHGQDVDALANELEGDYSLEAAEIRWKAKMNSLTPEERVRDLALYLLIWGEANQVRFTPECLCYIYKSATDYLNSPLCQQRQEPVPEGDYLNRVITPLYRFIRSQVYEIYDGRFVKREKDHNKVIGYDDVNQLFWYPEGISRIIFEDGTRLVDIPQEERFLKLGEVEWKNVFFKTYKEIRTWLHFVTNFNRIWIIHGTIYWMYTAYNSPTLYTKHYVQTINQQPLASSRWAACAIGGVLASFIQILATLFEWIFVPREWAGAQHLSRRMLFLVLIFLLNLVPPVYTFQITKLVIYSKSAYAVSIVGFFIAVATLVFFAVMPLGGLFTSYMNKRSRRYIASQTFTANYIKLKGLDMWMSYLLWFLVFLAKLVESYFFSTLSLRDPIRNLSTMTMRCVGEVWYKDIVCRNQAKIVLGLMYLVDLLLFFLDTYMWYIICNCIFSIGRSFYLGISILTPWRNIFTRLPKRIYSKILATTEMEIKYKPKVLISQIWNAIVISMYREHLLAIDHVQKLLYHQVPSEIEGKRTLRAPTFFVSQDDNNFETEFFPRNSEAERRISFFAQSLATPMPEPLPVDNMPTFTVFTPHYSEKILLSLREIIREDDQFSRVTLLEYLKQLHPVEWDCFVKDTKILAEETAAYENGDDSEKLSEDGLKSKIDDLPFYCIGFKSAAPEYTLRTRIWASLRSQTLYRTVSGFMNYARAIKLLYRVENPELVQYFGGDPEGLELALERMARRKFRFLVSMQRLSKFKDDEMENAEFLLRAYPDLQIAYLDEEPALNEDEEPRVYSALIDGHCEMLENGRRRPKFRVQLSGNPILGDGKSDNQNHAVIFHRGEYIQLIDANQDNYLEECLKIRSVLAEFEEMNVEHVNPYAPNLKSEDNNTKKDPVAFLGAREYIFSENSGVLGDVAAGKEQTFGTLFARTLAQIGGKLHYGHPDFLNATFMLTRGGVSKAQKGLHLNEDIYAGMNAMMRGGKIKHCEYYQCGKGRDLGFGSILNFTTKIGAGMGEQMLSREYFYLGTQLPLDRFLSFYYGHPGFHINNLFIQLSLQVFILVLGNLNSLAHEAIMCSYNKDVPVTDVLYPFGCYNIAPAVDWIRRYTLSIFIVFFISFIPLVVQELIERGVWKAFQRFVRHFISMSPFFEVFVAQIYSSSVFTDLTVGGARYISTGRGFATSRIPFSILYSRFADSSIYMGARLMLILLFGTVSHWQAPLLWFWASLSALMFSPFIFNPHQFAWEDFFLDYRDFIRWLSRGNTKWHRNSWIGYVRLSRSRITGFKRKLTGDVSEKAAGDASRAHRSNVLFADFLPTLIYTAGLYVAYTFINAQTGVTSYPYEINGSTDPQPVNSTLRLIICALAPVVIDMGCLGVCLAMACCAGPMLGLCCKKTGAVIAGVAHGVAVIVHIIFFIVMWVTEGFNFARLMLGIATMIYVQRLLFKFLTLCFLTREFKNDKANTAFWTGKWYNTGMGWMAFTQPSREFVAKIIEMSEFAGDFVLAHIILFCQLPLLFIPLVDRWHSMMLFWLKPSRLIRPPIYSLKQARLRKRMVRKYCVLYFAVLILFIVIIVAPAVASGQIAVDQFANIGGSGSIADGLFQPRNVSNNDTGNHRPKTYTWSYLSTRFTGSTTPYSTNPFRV
T1 sequence (O42825 1-195 partner limits assumed): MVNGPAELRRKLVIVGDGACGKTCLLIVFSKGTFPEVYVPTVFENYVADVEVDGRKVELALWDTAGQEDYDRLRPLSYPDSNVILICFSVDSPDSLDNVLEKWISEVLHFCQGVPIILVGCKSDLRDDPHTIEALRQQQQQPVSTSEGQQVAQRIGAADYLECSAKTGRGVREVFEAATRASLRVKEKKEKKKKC

CCN(C)C(C)(CCOC)CO[C@H]1[C@H](n2nnc(N)n2)C[C@@]23COC[C@]1(C)[C@@H]2CC[C@H]1C3=CC[C@@]2(C)[C@H](C(=O)O)[C@@](C)([C@H](C)C(C)C)CC[C@]12C (stereo partly drawn) [Example 127, (1S,4aR,6aS,7R,8R,10aR,10bR,12aR,14R,15R)-14-(5-amino-2H-tetrazol-2-yl)-8-[(1R)-1,2-dimethylpropyl]-15-[2-(ethylmethylamino)-4-methoxy-2-methylbutoxy]-1,6,6a,7,8,9,10,10a,10b,11,12,12a-dodecahydro-1,6a,8,10a-tetramethyl-4H-1,4a-propano-2H-phenanthro[1,2-c]pyran-7-carboxylic acid]
IC50: 30.9 nM

CN[C@@](C)(CO[C@H]1[C@H](n2nnc(NC(C)=O)n2)C[C@@]23COC[C@]1(C)[C@@H]2CC[C@H]1C3=CC[C@@]2(C)[C@H](C(=O)O)[C@@](C)([C@H](C)C(C)C)CC[C@]12C)C(C)C [Example 39B, (1S,4aR,6aS,7R,8R,10aR,10bR,12aR,14R,15R)-14-[5-(acetylamino)-2H-tetrazol-2-yl]-15-[[(2R)-2,3-dimethyl-2-(methylamino)butyl]oxy]-8-[(1R)-1,2-dimethylpropyl]-1,6,6a,7,8,9,10,10a,10b,11,12,12a-dodecahydro-1,6a,8,10a-tetramethyl-4H-1,4a-propano-2H-phenanthro[1,2-c]pyran-7-carboxylic acid]
IC50: 15.5 nM

CNC(C)(CCF)CO[C@H]1[C@H](n2nnc(N)n2)C[C@@]23COC[C@]1(C)[C@@H]2CC[C@H]1C3=CC[C@@]2(C)[C@H](C(=O)O)[C@@](C)([C@H](C)C(C)C)CC[C@]12C (stereo partly drawn) [Example 129, (1S,4aR,6aS,7R,8R,10aR,10bR,12aR,14R,15R)-14-(5-amino-2H-tetrazol-2-yl)-8-[(1R)-1,2-dimethylpropyl]-15-[4-fluoro-2-methyl-2-(methylamino)butoxy]-1,6,6a,7,8,9,10,10a,10b,11,12,12a-dodecahydro-1,6a,8,10a-tetramethyl-4H-1,4a-propano-2H-phenanthro[1,2-c]pyran-7-carboxylic acid]
IC50: 7.43 nM

CC(C)[C@@H](C)[C@@]1(C)CC[C@]2(C)[C@H]3CC[C@@H]4[C@@]5(COC[C@@]4(C)[C@@H](OC[C@](C)(N)C(C)C)[C@H](n4nnc(CO)n4)C5)C3=CC[C@@]2(C)[C@@H]1C(=O)O [Example 43B, (1S,4aR,6aS,7R,8R,10aR,10bR,12aR,14R,15R)-15-[[(2R)-2-amino-2,3-dimethylbutyl]oxy]-8-[(1R)-1,2-dimethylpropyl]-14-[5-(hydroxymethyl)-2H-tetrazol-2-yl]-1,6,6a,7,8,9,10,10a,10b,11,12,12a-dodecahydro-1,6a,8,10a-tetramethyl-4H-1,4a-propano-2H-phenanthro[1,2-c]pyran-7-carboxylic acid]
IC50: 85.1 nM

CC(C)[C@@H](C)[C@@]1(C)CC[C@]2(C)[C@H]3CC[C@@H]4[C@@]5(COC[C@@]4(C)[C@@H](OC[C@@H](C(C)C)N(C)C)[C@H](n4nnc(N)n4)C5)C3=CC[C@@]2(C)[C@@H]1C(=O)O [Example 80, (1S,4aR,6aS,7R,8R,10aR,10bR,12aR,14R,15R)-14-(5-amino-2H-tetrazol-2-yl)-15-[[(2R)-2-(dimethylamino)-3-methylbutyl]oxy]-8-[(1R)-1,2-dimethylpropyl]-1,6,6a,7,8,9,10,10a,10b,11,12,12a-dodecahydro-1,6a,8,10a-tetramethyl-4H-1,4a-propano-2H-phenanthro[1,2-c]pyran-7-carboxylic acid]
IC50: 5.98 nM

CC(C)[C@@H](C)[C@@]1(C)CC[C@]2(C)[C@H]3CC[C@@H]4[C@@]5(COC[C@@]4(C)[C@@H](OC[C@@](C)(C(C)C)N(C)C)[C@H](n4nnc(N)n4)C5)C3=CC[C@@]2(C)[C@@H]1C(=O)O [Example 8, (1S,4aR,6aS,7R,8R,10aR,10bR,12aR,14R,15R)-14-(5-amino-2H-tetrazol-2-yl)-15-[[(2R)-2-(dimethylamino)-2,3-dimethylbutyl]oxy]-8-[(1R)-1,2-dimethylpropyl]-1,6,6a,7,8,9,10,10a,10b,11,12,12a-dodecahydro-1,6a,8,10a-tetramethyl-4H-1,4 a-propano-2H-phenanthro[1,2-c]pyran-7-carboxylic acid]
IC50: 13.2 nM

CC(C)[C@@H](C)[C@@]1(C)CC[C@]2(C)[C@H]3CC[C@@H]4[C@@]5(COC[C@@]4(C)[C@@H](OC[C@](C)(C(C)C)N(C)C)[C@H](n4nnc(N)n4)C5)C3=CC(=O)[C@@]2(C)[C@@H]1C(=O)O (single isomer, unassigned) [Example 15A]
IC50: 64.6 nM

CC(C)[C@@H](C)[C@@]1(C)CC[C@]2(C)[C@H]3CC[C@@H]4[C@@]5(COC[C@@]4(C)[C@@H](OCCN)[C@H](n4cnnn4)C5)C3=CC[C@@]2(C)[C@@H]1C(=O)O [Example 104, (1S,4aR,6aS,7R,8R,10aR,10bR,12aR,14R,15R)-15-(2-aminoethoxy)-8-[(1R)-1,2-dimethylpropyl]-14-(1H-tetrazol-1-yl)-1,6,6a,7,8,9,10,10a,10b,11,12,12a-dodecahydro-1,6a,8,10a-tetramethyl-4H-1,4a-propano-2H-phenanthro[1,2-c]pyran-7-carboxylic acid]
IC50: 118 nM

CC(C)[C@@H](C)[C@@]1(C)CC[C@]2(C)[C@H]3CC[C@@H]4[C@@]5(COC[C@@]4(C)[C@@H](OCCNCCCN(C)C)[C@H](n4nnc(N)n4)C5)C3=CC[C@@]2(C)[C@@H]1C(=O)O [Example 36, (1S,4aR,6aS,7R,8R,10aR,10bR,12aR,14R,15R)-14-(5-amino-2H-tetrazol-2-yl)-15-[2-[[3-(dimethylamino)propyl]amino]ethoxy]-8-[(1R)-1,2-dimethylpropyl]-1,6,6a,7,8,9,10,10a,10b,11,12,12a-dodecahydro-1,6a,8,10a-tetramethyl-4H-1,4a-propano-2H-phenanthro[1,2-c]pyran-7-carboxylic acid]
IC50: 8.77 nM

CN[C@@](C)(CO[C@H]1[C@H](n2nnc(N)n2)C[C@@]23COC[C@]1(C)[C@@H]2CC[C@H]1C3=CC[C@@]2(C)[C@H](C(=O)O)[C@@](C)([C@H](C)C(C)C)CC[C@]12C)C(C)C [Example 52, (1S,4aR,6aS,7R,8R,10aR,10bR,12aR,14R,15R)-14-(5-amino-2H-tetrazol-2-yl)-15-[[(2R)-2,3-dimethyl-2-(methylamino)butyl]oxy]-8-[(1R)-1,2-dimethylpropyl]-1,6,6a,7,8,9,10,10a,10b,11,12,12a-dodecahydro-1,6a,8,10a-tetramethyl-4H-1,4a-propano-2H-phenanthro[1,2-c]pyran-7-carboxylic acid]
IC50: 2.99 nM

CC(C)[C@@H](C)[C@@]1(C)CC[C@]2(C)[C@H]3CC[C@@H]4[C@@]5(COC[C@@]4(C)[C@@H](OCC4(N)CCSCC4)[C@H](n4nnc(N)n4)C5)C3=CC[C@@]2(C)[C@@H]1C(=O)O [Example 30, (1S,4aR,6aS,7R,8R,10aR,10bR,12aR,14R,15R)-15-[(4-aminotetrahydro-2H-thiopyran-4-yl)methoxy]-14-(5-amino-2H-tetrazol-2-yl)-8-[(1R)-1,2-dimethylpropyl]-1,6,6a,7,8,9,10,10a,10b,11,12,12a-dodecahydro-1,6a,8,10a-tetramethyl-4H-1,4a-propano-2H-phenanthro[1,2-c]pyran-7-carboxylic acid]
IC50: 2.92 nM
